Experimental data: PMC10745061 (Marine Drugs, 2023)
Where a SMILES comes first, the peptide text is derived from it. Bridges are numbered along the chain shown (N, C = ends).

Columns and labels:
[1] = tested on: E. coli K12 SBS 1936 biofilm; experiment: Effect on established biofilm, MTT assay; assay type: cell-based, Escherichia coli; details: at 2 × MIC (4 μM), 24 h pre-formed biofilm, 16 h treatment in LB, 37 °C
Procedure: Bacterial biofilms play an important role in UTIs, being responsible for their persistence. Therefore, the eradication of mature biofilms is an extremely challenging task because high concentrations or doses of antibacterial agents are required. Here, the ability of HfBRI-25 to disrupt established biofilms was evaluated as a number of viable bacteria in biofilm using the MTT assay. According to our previous data, E. coli K12 SBS 1936 was chosen as a strong biofilm-producer that can form it in different media.
E. coli K12 SBS1936 was grown in LB broth overnight at 37 °C and diluted in the same media to obtain 1 × 10^6 CFU/mL. A total of 100 μL of bacterial suspension was added to each well of the 96-well polystyrene plate and grown at 32 °C and 120 rpm for 24 h. The wells were washed twice with sterile water to remove non-adherent cells. In parallel, 100 μL of peptide or ciprofloxacin solutions, serially diluted in LB medium using a separate 96-well polystyrene plate, were added to each well with pre-formed biofilm and incubated at 37 °C and 180 rpm for 16 h. Biofilm viability was assessed by using the MTT reagent (Sigma). […] Absorbance of each well was measured at 570 nm. Bacterial survival was calculated as a percentage relative to samples without antimicrobial agent. […]

E. coli = assay type: cell-based, Escherichia coli; details: panel incl. clinically isolated UPEC, MDR and XDR strains; regardless of resistance profile, biofilm production, presence of serum
Procedure: The clinical isolates were collected and provided by Sechenov First Moscow State Medical University hospital and the State Collection of Pathogenic Microorganisms “Obolensk” (SRCAMB collection). The resistant to conventional antibiotics strains were defined as extensively drug resistant (XDR), according to [47]. Bacterial test cultures were grown in a Mueller–Hinton broth (MHB, Sigma) at 37 °C to mid-log phase and then diluted with the 2× MH medium supplemented with 1.8% NaCl (and, optionally, with fetal bovine serum (FBS, Gibco) at different concentrations) or without salt so that to reach a final cell concentration of 10^6 CFU/mL. Moreover, 50 μL of the obtained bacterial suspension were added to aliquots of 50 μL of the peptide solutions serially diluted with sterilized 0.1% bovine serum albumin (BSA) in 96-well flat-bottom polystyrene microplates (Eppendorf #0030730011). After incubation for 24 h at 37 °C and 950 rpm on the plate thermoshaker (Biosan), minimum inhibitory concentrations (MIC) were determined as the lowest peptide concentrations that prevented growth of a test microorganism observed as visible turbidity. […] In the case of Mycobacterium smegmatis, MICs were determined in the Middlebrook 7H9 medium (HiMedia). The results were expressed as the median values determined on the basis of at least three independent experiments performed in triplicate.

CC[C@H](C)[C@@H]1NC(=O)[C@H](Cc2c[nH]c3ccccc23)NC(=O)[C@H](C(C)C)NC(=O)[C@@H]2CSSC[C@H](NC(=O)[C@H](CCCNC(=N)N)NC(=O)[C@H](CCCNC(=N)N)NC(=O)[C@H](C(C)C)NC(=O)[C@H](CCCNC(=N)N)NC(=O)[C@H](CCCNC(=N)N)NC(=O)CNC(=O)[C@H](CC(N)=O)NC(=O)[C@H](C(C)C)NC(=O)[C@H](CO)NC1=O)C(=O)N[C@@H](Cc1c[nH]c3ccccc13)C(=O)NCC(=O)N[C@@H](CO)C(=O)NCC(=O)N[C@H](C(=O)O)CSSC[C@H](NC(=O)CNC(=O)[C@H](CCCNC(=N)N)NC(=O)[C@@H]1CCCN1C(=O)[C@@H](N)CO)C(=O)N[C@@H](Cc1ccccc1)C(=O)N2 [HfBRI-25] (H-SPRGCFCVWISVNGRRVRRCWGSGC-OH; disulfide 5-25, 7-20; N-terminus and C-terminus assumed)
Bacterial viability inside established biofilm [1]: minimal residual bacterial viability | MIC value against all tested E. coli strains (E. coli): 1 to 2 µM
